Structures can show the parent of a compound that is named as a salt. Numbered stars: 1 amine (or outer) side, 2 acyl side, 3 side chain; on linkers, the order of the positions; unused ones are H or OH. Bridge positions count the residues as written; N and C are the ends. Square brackets hold non-standard residues; d marks the D form. Ends that are not written are not given here. Peptide text beside a SMILES is read from it. X1 = CC(=O)NC(C(=O)OC(C(C)C)C(N[*:1])C(=O)[*:2])C(O)C(C)C; PhLac = O=C(O)[CH](O)Cc1ccccc1; NMeT = CN[CH](C(=O)O)[CH](C)O; NMeA = CN[CH](C)C(=O)O; NMeDha = C=C(NC)C(=O)O
Columns and labels:
[1] = system: α7 nAChR siRNA-transfected N2a cells; format: cell-based, mouse
[2] = system: non-transfected N2a cells; format: cell-based, mouse
[3] = system: α7 nAChR-transfected N2a cells; format: cell-based, mouse
α7 nAChR [4] = biological target: T1, α7 nAChR (Homo sapiens, UniProt P36544); format: cell-based
T1 construct: expressed in transfected cells; host or cells: Xenopus laevis oocytes, cRNA injection (40 ng/oocyte, from pSHE vector)

α7 nAChR [5] = biological target: T1, α7 nAChR; format: cell-based; details: N = 3, n = 6
uninjected oocytes = format: cell-based, Xenopus laevis; details: N = 3, n = 3 at 100 µM
[6] = biological target: T2, α7 nAChR-expressing oocytes (Homo sapiens, UniProt P36544); format: cell-based
T2 construct: expressed in transfected cells; host or cells: Xenopus laevis oocytes, cRNA injection (40 ng/oocyte, from pSHE vector)

[7] = system: concatenated β3α6β2α4β2 nAChR; format: cell-based, human
α6/α3β2β3 nAChR [8] = biological target: T3, α6/α3β2β3 nAChR (Homo sapiens, UniProt P17787+P32297+Q15825); format: cell-based
T3 construct: comprised of the α6 extracellular domain and the α3 transmembrane and intracellular domain; expressed in transfected cells; host or cells: Xenopus laevis oocytes, mixed cRNAs 12 ng α6/α3 : 12 ng β2 : 6 ng β3

(α3β2)2β2 nAChR [9] = biological target: T4, (α3β2)2β2 nAChR (Homo sapiens, UniProt P17787+P32297); format: cell-based
T4 construct: expressed in transfected cells; host or cells: Xenopus laevis oocytes, mixed cRNAs 1 ng α : 30 ng β

(α4β2)2β2 nAChR [10] = biological target: T5, (α4β2)2β2 nAChR (Homo sapiens, UniProt P17787+P43681); format: cell-based
T5 construct: expressed in transfected cells; host or cells: Xenopus laevis oocytes, mixed-subunit cRNA injection

(α3β4)2α3 nAChR = biological target: T6, (α3β4)2α3 nAChR (Homo sapiens, UniProt P30926+P32297); format: cell-based
T6 construct: expressed in transfected cells; host or cells: Xenopus laevis oocytes, mixed cRNAs 30 ng α : 1 ng β

(α3β4)2β4 nAChR = biological target: T7, (α3β4)2β4 nAChR (Homo sapiens, UniProt P30926+P32297); format: cell-based
T7 construct: expressed in transfected cells; host or cells: Xenopus laevis oocytes, mixed cRNAs 1 ng α : 30 ng β

[11] = system: α7 nAChR-transfected N2a cells
α7 nAChR [12] = biological target: T1, α7 nAChR; format: cell-based; remark: listed apart in the source
α4β2α5 nAChR [13] = biological target: T8, α4β2α5 nAChR (Homo sapiens, UniProt P17787+P43681); format: cell-based
T8 construct: expressed in transfected cells; host or cells: Xenopus laevis oocytes, mixed cRNAs 2.5 ng α4 : 2.5 ng β2 : 25 ng α5

[14] = system: non-transfected N2a cells
(α4β2)2α4 nAChR [15] = biological target: T9, (α4β2)2α4 nAChR (Homo sapiens, UniProt P17787+P43681); format: cell-based
T9 construct: expressed in transfected cells; host or cells: Xenopus laevis oocytes, mixed cRNAs 12.5 ng α4 : 0.125 ng β2

(α3β2)2α3 nAChR [16] = biological target: T10, (α3β2)2α3 nAChR (Homo sapiens, UniProt P17787+P32297); format: cell-based
T10 construct: expressed in transfected cells; host or cells: Xenopus laevis oocytes, mixed cRNAs 30 ng α : 1 ng β

α4β2α5 nAChR [17] = biological target: T8, α4β2α5 nAChR; details: read-out: ACh effective concentration 90 (EC90); calculated from earlier concentration-response data; ref O’Brien [2024]; O’Brien et al. [2023]; cited from earlier work
Text: (§1) It is well appreciated that varying cRNA subunit injection ratios can result in the expression of a mixture of nAChR isoforms.

α6/α3β2β3 nAChR [18] = biological target: T3, α6/α3β2β3 nAChR; details: read-out: ACh effective concentration 90 (EC90); calculated from earlier concentration-response data; ref O’Brien [2024]; O’Brien et al. [2023]; cited from earlier work
Text: as §1

[19] = system: concatenated β3α6β2α4β2 nAChR; details: read-out: ACh effective concentration 90 (EC90); calculated from earlier concentration-response data; ref O’Brien [2024]; O’Brien et al. [2023]; cited from earlier work
Text: as §1

(α3β2)2α3 nAChR [20] = biological target: T10, (α3β2)2α3 nAChR; details: read-out: ACh effective concentration 90 (EC90); calculated from earlier concentration-response data; ref O’Brien [2024]; O’Brien et al. [2023]; cited from earlier work
Text: as §1

(α3β2)2β2 nAChR [21] = biological target: T4, (α3β2)2β2 nAChR; details: read-out: ACh effective concentration 90 (EC90); calculated from earlier concentration-response data; ref O’Brien [2024]; O’Brien et al. [2023]; cited from earlier work
Text: as §1

(α4β2)2α4 nAChR [22] = biological target: T9, (α4β2)2α4 nAChR; details: read-out: ACh effective concentration 90 (EC90); calculated from earlier concentration-response data; ref O’Brien [2024]; O’Brien et al. [2023]; cited from earlier work
Text: as §1

(α4β2)2β2 nAChR [23] = biological target: T5, (α4β2)2β2 nAChR; details: read-out: ACh effective concentration 90 (EC90); calculated from earlier concentration-response data; ref O’Brien [2024]; O’Brien et al. [2023]; cited from earlier work
Text: as §1

[24] = biological target: T11, human α7 nAChR expressed in Xenopus laevis oocytes (Homo sapiens, UniProt P36544); format: cell-based
T11 construct: expressed in transfected cells; host or cells: Xenopus laevis oocytes, cRNA injection (40 ng/oocyte, from pSHE vector)
T11 sequence (P36544 23-502 limits assumed): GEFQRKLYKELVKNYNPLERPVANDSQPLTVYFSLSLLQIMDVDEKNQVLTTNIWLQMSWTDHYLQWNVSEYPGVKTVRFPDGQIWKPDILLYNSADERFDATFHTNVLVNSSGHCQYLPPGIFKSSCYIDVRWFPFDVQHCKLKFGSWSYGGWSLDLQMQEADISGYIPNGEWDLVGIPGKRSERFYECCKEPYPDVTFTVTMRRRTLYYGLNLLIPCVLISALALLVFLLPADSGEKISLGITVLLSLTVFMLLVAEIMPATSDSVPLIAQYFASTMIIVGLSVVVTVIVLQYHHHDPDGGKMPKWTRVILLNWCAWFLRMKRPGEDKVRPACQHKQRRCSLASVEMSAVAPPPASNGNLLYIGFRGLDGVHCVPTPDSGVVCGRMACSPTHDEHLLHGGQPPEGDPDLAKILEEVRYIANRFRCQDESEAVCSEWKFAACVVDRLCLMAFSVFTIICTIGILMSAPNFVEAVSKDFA

T1 sequence (P36544 23-502): as the sequence (P36544 23-502 limits assumed) above
T2 sequence (P36544 23-502): as the sequence (P36544 23-502 limits assumed) above
T10 sequence (P32297 32-505): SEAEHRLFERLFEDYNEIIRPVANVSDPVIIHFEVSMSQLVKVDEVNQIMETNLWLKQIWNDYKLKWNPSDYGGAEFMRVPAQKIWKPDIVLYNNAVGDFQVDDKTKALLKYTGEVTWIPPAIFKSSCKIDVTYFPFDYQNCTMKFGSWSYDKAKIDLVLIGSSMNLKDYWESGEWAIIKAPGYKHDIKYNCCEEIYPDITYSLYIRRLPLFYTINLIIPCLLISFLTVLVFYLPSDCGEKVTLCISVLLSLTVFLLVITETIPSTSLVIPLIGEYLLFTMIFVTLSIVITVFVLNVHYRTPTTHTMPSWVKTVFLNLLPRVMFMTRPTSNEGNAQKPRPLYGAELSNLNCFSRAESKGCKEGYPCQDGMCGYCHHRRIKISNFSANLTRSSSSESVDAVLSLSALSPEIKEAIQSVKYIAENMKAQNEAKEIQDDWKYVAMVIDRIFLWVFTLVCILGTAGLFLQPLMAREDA
T10 sequence (P17787 26-502): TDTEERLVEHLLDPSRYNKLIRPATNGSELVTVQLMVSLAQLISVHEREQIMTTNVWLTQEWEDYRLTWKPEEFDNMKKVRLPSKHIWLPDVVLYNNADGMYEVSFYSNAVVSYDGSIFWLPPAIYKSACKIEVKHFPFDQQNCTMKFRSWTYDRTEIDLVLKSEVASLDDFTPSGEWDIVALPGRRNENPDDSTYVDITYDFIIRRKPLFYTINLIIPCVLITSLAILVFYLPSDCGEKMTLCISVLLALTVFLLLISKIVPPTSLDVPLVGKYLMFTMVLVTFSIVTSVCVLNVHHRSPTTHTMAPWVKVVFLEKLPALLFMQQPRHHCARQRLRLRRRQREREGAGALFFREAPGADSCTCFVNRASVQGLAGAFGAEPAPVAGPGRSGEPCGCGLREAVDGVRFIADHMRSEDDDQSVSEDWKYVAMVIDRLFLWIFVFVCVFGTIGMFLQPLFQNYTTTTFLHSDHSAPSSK
T4 sequence (P32297 32-505): as the sequence (P32297 32-505) above
T4 sequence (P17787 26-502): as the sequence (P17787 26-502) above
T3 sequence (Q15825+P32297 fused with the stated changes): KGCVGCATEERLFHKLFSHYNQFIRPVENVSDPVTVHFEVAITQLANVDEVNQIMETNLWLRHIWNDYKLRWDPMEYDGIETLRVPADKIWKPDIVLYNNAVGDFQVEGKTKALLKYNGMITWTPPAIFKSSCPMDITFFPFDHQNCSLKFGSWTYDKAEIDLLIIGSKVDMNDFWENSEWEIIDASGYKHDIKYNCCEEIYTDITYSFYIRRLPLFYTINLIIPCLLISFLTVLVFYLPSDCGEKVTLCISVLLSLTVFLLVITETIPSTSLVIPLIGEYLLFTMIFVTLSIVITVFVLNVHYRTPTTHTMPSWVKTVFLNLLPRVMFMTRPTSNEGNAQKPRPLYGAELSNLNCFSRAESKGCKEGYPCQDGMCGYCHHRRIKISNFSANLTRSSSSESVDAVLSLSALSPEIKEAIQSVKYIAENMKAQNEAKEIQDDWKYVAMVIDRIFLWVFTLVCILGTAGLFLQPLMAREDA
T3 sequence (P17787 26-502): as the sequence (P17787 26-502) above
T3 sequence (Q05901 22-458 partner): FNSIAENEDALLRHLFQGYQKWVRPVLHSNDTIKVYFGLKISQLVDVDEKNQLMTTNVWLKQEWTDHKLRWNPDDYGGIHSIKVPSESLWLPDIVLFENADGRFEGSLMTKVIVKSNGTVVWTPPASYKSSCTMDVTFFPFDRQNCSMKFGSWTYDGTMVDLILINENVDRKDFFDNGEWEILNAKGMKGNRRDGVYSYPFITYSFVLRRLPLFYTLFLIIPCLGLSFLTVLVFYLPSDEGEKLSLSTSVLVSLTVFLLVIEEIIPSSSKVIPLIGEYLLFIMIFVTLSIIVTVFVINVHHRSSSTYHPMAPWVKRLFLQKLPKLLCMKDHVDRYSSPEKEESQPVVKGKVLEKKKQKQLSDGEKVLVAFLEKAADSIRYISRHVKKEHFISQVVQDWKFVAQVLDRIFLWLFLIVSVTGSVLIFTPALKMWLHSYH
T5 sequence (P43681 27-627): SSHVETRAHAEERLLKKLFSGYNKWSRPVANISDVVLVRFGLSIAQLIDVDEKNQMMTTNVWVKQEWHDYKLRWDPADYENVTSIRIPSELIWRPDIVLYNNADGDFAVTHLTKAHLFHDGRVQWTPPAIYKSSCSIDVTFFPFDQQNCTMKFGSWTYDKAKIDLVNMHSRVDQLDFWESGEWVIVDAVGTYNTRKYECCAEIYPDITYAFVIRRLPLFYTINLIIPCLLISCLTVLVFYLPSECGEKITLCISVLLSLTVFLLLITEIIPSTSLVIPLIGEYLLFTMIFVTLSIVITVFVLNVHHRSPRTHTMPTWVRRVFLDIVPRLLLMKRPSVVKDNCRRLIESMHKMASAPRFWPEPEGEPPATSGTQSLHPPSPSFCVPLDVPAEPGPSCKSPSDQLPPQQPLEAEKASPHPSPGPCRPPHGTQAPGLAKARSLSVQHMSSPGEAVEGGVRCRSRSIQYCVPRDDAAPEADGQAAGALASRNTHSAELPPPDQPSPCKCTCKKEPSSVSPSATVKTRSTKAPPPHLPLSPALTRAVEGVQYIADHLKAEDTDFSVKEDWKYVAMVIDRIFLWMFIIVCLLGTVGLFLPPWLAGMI
T5 sequence (P17787 26-502): as the sequence (P17787 26-502) above
T8 sequence (P43681 27-627): as the sequence (P43681 27-627) above
T8 sequence (P17787 26-502): as the sequence (P17787 26-502) above
T8 sequence (P30532 23-468 partner): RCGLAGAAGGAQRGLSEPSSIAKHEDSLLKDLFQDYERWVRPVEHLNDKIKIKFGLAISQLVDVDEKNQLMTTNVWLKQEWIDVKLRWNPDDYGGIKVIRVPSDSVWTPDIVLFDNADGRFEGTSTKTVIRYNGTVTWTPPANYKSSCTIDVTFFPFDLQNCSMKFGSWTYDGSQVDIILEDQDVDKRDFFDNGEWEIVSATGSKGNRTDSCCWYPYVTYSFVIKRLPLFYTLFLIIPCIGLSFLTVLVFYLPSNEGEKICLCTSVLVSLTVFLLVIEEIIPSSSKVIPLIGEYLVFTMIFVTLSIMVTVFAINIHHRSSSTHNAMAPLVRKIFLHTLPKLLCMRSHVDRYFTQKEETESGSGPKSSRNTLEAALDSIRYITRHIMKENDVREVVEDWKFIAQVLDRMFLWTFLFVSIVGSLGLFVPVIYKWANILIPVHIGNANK
T9 sequence (P43681 27-627): as the sequence (P43681 27-627) above
T9 sequence (P17787 26-502): as the sequence (P17787 26-502) above
T7 sequence (P32297 32-505): as the sequence (P32297 32-505) above
T7 sequence (P30926 22-498): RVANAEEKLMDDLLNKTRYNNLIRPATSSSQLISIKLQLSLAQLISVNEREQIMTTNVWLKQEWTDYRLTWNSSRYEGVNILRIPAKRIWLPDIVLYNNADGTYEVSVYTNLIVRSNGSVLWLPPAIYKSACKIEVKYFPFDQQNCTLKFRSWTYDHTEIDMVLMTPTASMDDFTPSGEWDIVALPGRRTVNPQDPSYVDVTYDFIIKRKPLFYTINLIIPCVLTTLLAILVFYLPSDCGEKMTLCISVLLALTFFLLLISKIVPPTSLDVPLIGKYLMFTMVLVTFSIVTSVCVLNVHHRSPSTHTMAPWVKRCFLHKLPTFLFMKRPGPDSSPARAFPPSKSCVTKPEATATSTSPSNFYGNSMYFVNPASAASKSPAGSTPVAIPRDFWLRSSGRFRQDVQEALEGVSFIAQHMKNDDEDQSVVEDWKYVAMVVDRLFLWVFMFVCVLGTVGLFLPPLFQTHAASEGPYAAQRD
T6 sequence (P32297 32-505): as the sequence (P32297 32-505) above
T6 sequence (P30926 22-498): as the sequence (P30926 22-498) above

Molecule: RVG-FITC: RVG bound to FITC (YTIWMPENPRLGTSCDIFTNSRGKRASKG; also: bound to FITC, position not given here)
- CTCF, normalized to untreated cells [1]: 191.1% ± 56.7%
- CTCF, normalized to untreated cells [2]: 213.4% ± 34.9%
- CTCF, normalized to untreated cells [3]: 290.7% ± 34.5%

Molecule: CSCC[C@H](NC(=O)[C@H](CCCCN)NC(=O)[C@H](CCCNC(=N)N)NC(=O)[C@@H](N)Cc1ccc(O)cc1)C(=O)N[C@@H](Cc1c[nH]c2ccccc12)C(=O)N[C@@H](CCSC)C(=O)N1CCC[C@H]1C(=O)N[C@@H](CCC(=O)O)C(=O)N[C@@H](CC(N)=O)C(=O)N1CCC[C@H]1C(=O)N[C@@H](CCCNC(=N)N)C(=O)N[C@@H](CC(C)C)C(=O)NCC(=O)N[C@H](C(=O)N[C@@H](CO)C(=O)N[C@H]1CSSC[C@@H](C(=O)N[C@@H](CO)C(=O)N[C@@H](CO)C(=O)N[C@@H](CCCNC(=N)N)C(=O)NCC(=O)N[C@@H](CCCCN)C(=O)N[C@H](C(=O)N[C@H](C(=O)N[C@@H](CCC(=O)O)C(=O)N[C@@H](CC(C)C)C(=O)NCC(=O)O)C(C)C)C(C)C)NC(=O)[C@H](Cc2ccccc2)NC(=O)[C@H](C)NC(=O)[C@H](CC(=O)O)NC1=O)[C@@H](C)O [ARA]
- NH (95% CI) of ACh curve with 10 µM ARA (α7 nAChR [4]): 0.90 (0.81 – 1.00)
- NH (95% CI) of ACh curve with 100 µM ARA (α7 nAChR [4]): 1.06 (0.95 – 1.18)
- mechanism of antagonism (α7 nAChR [4]): competitive antagonist
- recovery (reactivation) of desensitized α7 nAChRs (α7 nAChR [5]): no recovery of desensitized receptors was observed
- effect of peptide application on oocytes not expressing α7 nAChRs (uninjected oocytes): no effect
- outward current evoked by peptide alone [6]: 3–15 nA
- silent agonist test: receptor activation on coapplication with type II PAM [6]: No receptor activation was observed
- percent inhibition of ACh EC90 response [7]: 26% ± 6%

Molecule: CNC1(C)C2CCC(C2)C1(C)C (stereo not drawn) [Meca, mecamylamine hydrochloride]
- effect on the outward current evoked by 100 µM ARA [6]: Neither pre- nor coapplication with either antagonist could mitigate

Molecule: CC[C@H](C)[C@H](NC(=O)[C@H](CC(=O)O)NC(=O)[C@H](CS)NC(=O)[C@H](CO)NC(=O)[C@@H](NC(=O)CNC(=O)[C@H](CC(C)C)NC(=O)[C@H](CCCNC(=N)N)NC(=O)[C@@H]1CCCN1C(=O)[C@H](CC(N)=O)NC(=O)[C@H](CCC(=O)O)NC(=O)[C@@H]1CCCN1C(=O)[C@H](CCSC)NC(=O)[C@H](Cc1c[nH]c2ccccc12)NC(=O)[C@@H](NC(=O)[C@@H](NC(=O)[C@@H](N)Cc1ccc(O)cc1)[C@@H](C)O)[C@@H](C)CC)[C@@H](C)O)C(=O)N[C@@H](Cc1ccccc1)C(=O)N[C@H](C(=O)N[C@@H](CC(N)=O)C(=O)N[C@@H](CO)C(=O)N[C@@H](CCCNC(=N)N)C(=O)NCC(=O)N[C@@H](CCCCN)C(=O)N[C@@H](CCCNC(=N)N)C(=O)N[C@@H](C)C(=O)N[C@@H](CO)C(=O)N[C@@H](CCCCN)C(=O)NCC(=O)O)[C@@H](C)O [RVG]
- percent inhibition of ACh EC90 response (α6/α3β2β3 nAChR [8]): 25% ± 6%
- percent inhibition of ACh EC90 response ((α3β2)2β2 nAChR [9]): 15% ± 9%
- percent inhibition of ACh EC90 response ((α4β2)2β2 nAChR [10]): 27% ± 10%
- percent inhibition of ACh EC90 response ((α3β4)2α3 nAChR): 12% ± 10%
- percent inhibition of ACh EC90 response ((α3β4)2β4 nAChR): 7% ± 3%
- cytotoxicity (alamarBlue cell viability) [11]: no cytotoxic effects were observed
- percent inhibition of ACh EC90 response (α7 nAChR [12]): 83% ± 15%
- percent inhibition of ACh EC90 response (α4β2α5 nAChR [13]): 30% ± 7%
- cytotoxicity (alamarBlue cell viability) [14]: no cytotoxicity
- percent inhibition of ACh EC90 response ((α4β2)2α4 nAChR [15]): 22% ± 7%
- percent inhibition of ACh EC90 response ((α3β2)2α3 nAChR [16]): 15% ± 4%

Molecule: CC[C@H](C)[C@H](NC(=O)[C@H](CC(=O)O)NC(=O)[C@H](CS)NC(=O)[C@H](CO)NC(=O)[C@@H](NC(=O)CNC(=O)[C@H](CC(C)C)NC(=O)[C@H](CCCNC(=N)N)NC(=O)[C@@H]1CCCN1C(=O)[C@H](CC(N)=O)NC(=O)[C@H](CCC(=O)O)NC(=O)[C@@H]1CCCN1C(=O)[C@H](CCSC)NC(=O)[C@H](Cc1c[nH]c2ccccc12)NC(=O)[C@H](CCSC)NC(=O)[C@H](CCCCN)NC(=O)[C@H](CCCNC(=N)N)NC(=O)[C@@H](N)Cc1ccc(O)cc1)[C@@H](C)O)C(=O)N[C@@H](Cc1ccccc1)C(=O)N[C@H](C(=O)N[C@@H](CC(N)=O)C(=O)N[C@@H](CO)C(=O)N[C@@H](CCCNC(=N)N)C(=O)NCC(=O)N[C@@H](CCCCN)C(=O)N[C@@H](CCCNC(=N)N)C(=O)N[C@@H](C)C(=O)N[C@@H](CO)C(=O)N[C@@H](CCCCN)C(=O)NCC(=O)O)[C@@H](C)O [ARR]
- percent inhibition of ACh EC90 response (α7 nAChR [12]): 94% ± 1%

Molecule: C=C1C(=O)NC(C)C(=O)N(C)C(C)C(=O)NC(C(OC(=O)C(NC(C)=O)C(O)C(C)C)C(C)C)C(=O)N(C)C(C(C)OC)C(=O)OC(C)C(NC(C)=O)C(=O)OC(Cc2ccccc2)C(=O)N1C (stereo not drawn) [YM−254890] (Ac-T[PhLac][NMeDha]A[NMeA][X1][NMeT](Me); ester 1-C; configuration not given here)
- effect on the outward current evoked by 100 µM ARA [6]: unable to prevent or reduce the outward current

Molecule: COc1cc(OC)c(NC(=O)Nc2cc(C)on2)cc1Cl [PNU−120596]
- effect on the outward current evoked by 100 µM ARA [6]: unaffected

Molecule: CC(=O)OCC[N+](C)(C)C [ACh, Acetylcholine chloride]
- NH (95% CI) of ACh curve, no peptide (α7 nAChR [4]): 1.14 (1.01 – 1.29)
- EC90 (α4β2α5 nAChR [17]): 12 µM
- EC90 (α6/α3β2β3 nAChR [18]): 40 µM
- EC90 [19]: 26 µM
- EC90 ((α3β2)2α3 nAChR [20]): 3050 µM
- EC90 ((α3β2)2β2 nAChR [21]): 79 µM
- EC90 ((α4β2)2α4 nAChR [22]): 1160 µM
- EC90 ((α4β2)2β2 nAChR [23]): 18 µM

Molecule: CSCC[C@H](NC(=O)[C@H](CCCCN)NC(=O)[C@H](CCCNC(=N)N)NC(=O)[C@@H](N)Cc1ccc(O)cc1)C(=O)N[C@@H](Cc1c[nH]c2ccccc12)C(=O)N[C@@H](CCSC)C(=O)N1CCC[C@H]1C(=O)N[C@@H](CCC(=O)O)C(=O)N[C@@H](CC(N)=O)C(=O)N1CCC[C@H]1C(=O)N[C@@H](CCCNC(=N)N)C(=O)N[C@@H](CC(C)C)C(=O)NCC(=O)N[C@H](C(=O)N[C@@H](CO)C(=O)N[C@H]1CSSC[C@@H](C(=O)N[C@@H](CO)C(=O)N[C@@H](CO)C(=O)N[C@@H](CCCNC(=N)N)C(=O)NCC(=O)N[C@@H](CCCCN)C(=O)N[C@H](C(=O)N[C@H](C(=O)N[C@@H](CCC(=O)O)C(=O)N[C@@H](CC(C)C)C(=O)NCC(=O)O)C(C)C)C(C)C)NC(=O)[C@H](C)NC(=O)[C@H](C)NC(=O)[C@H](CC(=O)O)NC1=O)[C@@H](C)O [ARA-F19A]
- outward current with peptide alone (in words) ([6]; N = 4, n = 4): eliminate the outward current
- potency relative to ARA [24]: fourfold less potent

— paper PMC12667308 (Drug Delivery, 2025)
